This note sets out measurements from patent US10100064B2, “Purine inhibitors of human phosphatidylinositol 3-kinase delta” (Merck Sharp & Dohme Corp., priority 2014, dated 2018).

Where only a bound is given, the exact number is not on record here.

Assay [1] addresses T1, PI3Kdelta (Homo sapiens, UniProt O00329).
T1 construct: purchased Upstate; Millipore 14-604
The experiment in a line: HTRF PI3K biochemical assay, delta isoform. The following applies: 0.3 nM enzyme, 100 uM ATP, 5 uM PIP2, form screened (Neutral or TFA salt) given per compound. From the text: (§1) HTRF PI3K Biochemical Assay to Measure Intrinsic Potency of Compound Inhibitors
(§2) The PI3-Kinase biochemical assays were developed to measure the intrinsic potency and compound dependent inhibition of the alpha, beta, delta, and gamma PI3K isoform enzymes. This assay was developed and further optimized from a kit produced by Upstate (Millipore catalog #33-047) and has been configured for HTS and SAR screening. Briefly, this procedure exploits the exquisite specificity and high affinity binding of […] phosphatidyl(3,4,5)triphosphate (PIP3) to the GRP1 pleckstrin homology (PH) domain to generate the signal. In the absence of PIP3, an HTRF (Homogeneous Time-Resolved Fluorescence energy transfer) complex is formed consisting of europium (Eu)-labeled anti-GST, GSTtagged GRP1-PH domain, biotin-PIP3 and streptavidin conjugated APC. The native PIP3 produced by PI3-Kinase activity disrupts in a competitive manner the biotin-PIP3 from the PH domain, resulting in the loss of energy transfer (HTRF complex) and a decrease in the signal. The format of this assay is the same for all 4 isoforms of PI3K; the differences lie in the concentration of enzyme used to achieve robust assay window. The alpha, beta, and delta assays are run at 0.5, 1, and 0.3 nM enzymes and the gamma assay is run at 5 nM enzyme. The ATP concentration is 100 uM in the alpha, beta, and delta assays and 50 uM ATP in the gamma assay. All reactions are run at 5 uM PIP2.
(§3) Compounds are serially diluted (3-fold in 100% DMSO) across a 384-well polypropylene source plated from column 3 to column 12 and column 13 to column 22, to yield 10 concentration dose response for each test compound. Columns 1, 2, 23 and 24 contain either only DMSO or pharmacological known control inhibitor. Once titrations are made, 2.5 nL of the compounds on 384 well plates are reformatted and transferred by acoustic dispense in quadruplicates to a 1536 assay plate (Greiner) to assay across all four PI3K isoform enzymes.
(§4) The PI3-Kinase biochemical assay was optimized using the HTRF kit provided by Upstate (Millipore). The assay kit contains six reagents: 1) 4× Reaction Buffer; 2) native PIP2 (substrate); 3) Stop (EDTA); 4) Detection Mix A (Streptavidin-APC); 5) Detection Mix B (Eu-labeled Anti-GST plus GST-tagged PH-domain); 6) Detection Mix C. In addition, the following items were obtained or purchased; PI3Kinase (alpha 14-602, beta 14-603, gamma 14-558 and delta 14-604 from Upstate; Millipore), dithiothreitol (Sigma, D-5545), Adenosine-5′ triphosphate (InVitrogen, Cat#AS001A), native PIP3 (PI(3,4,5)P3, diC8, H^+, CELLSIGNALS, INC. Cat #907) DMSO (Sigma, 472301).
(§5) PI3Kinase Reaction Buffer is prepared by dilution the stock 1:4 with de-ionized water. DTT, PIP2 and Biotin-PIP3 were added to 1536 assay plate at a final concentration of 5 mM, […] 25 nM on the day of use. Enzyme addition and compound pre-incubation are initiated by the addition of 1.25 ul of PI3K (at twice its final concentration) in the 1× reaction buffer to all wells using a BioRaptor. Plates are incubated at room temperature for 15 minutes. Reactions are initiated by addition of 1.25 ul of 2× substrate solution (PIP2 and ATP in 1× reaction buffer) using BioRaptor. Plates are incubated in humidified chamber at room temperature for one hour. Reactions are quenched by addition of 0.625 uL of stop solution to all wells using the BioRaptor. The quenched reactions are then processed to detect product formation by adding 0.625 uL of Detection Solution to all wells using the BioRaptor (Detection mix C, Detection Mix A, and Detection Mix B combined together in an 18:1:1 ratio prepared 2 hours prior to use). Following a one hour incubation in the dark, the HTRF signal is measured on the Envision plate reader set for 330 nm excitation and dual emission detection at […]. […]

The target of assay [2] is T2, PI3Kalpha (Homo sapiens, UniProt P42336).
T2 construct: purchased Upstate; Millipore 14-602
T2 sequence (P42336 whole entry): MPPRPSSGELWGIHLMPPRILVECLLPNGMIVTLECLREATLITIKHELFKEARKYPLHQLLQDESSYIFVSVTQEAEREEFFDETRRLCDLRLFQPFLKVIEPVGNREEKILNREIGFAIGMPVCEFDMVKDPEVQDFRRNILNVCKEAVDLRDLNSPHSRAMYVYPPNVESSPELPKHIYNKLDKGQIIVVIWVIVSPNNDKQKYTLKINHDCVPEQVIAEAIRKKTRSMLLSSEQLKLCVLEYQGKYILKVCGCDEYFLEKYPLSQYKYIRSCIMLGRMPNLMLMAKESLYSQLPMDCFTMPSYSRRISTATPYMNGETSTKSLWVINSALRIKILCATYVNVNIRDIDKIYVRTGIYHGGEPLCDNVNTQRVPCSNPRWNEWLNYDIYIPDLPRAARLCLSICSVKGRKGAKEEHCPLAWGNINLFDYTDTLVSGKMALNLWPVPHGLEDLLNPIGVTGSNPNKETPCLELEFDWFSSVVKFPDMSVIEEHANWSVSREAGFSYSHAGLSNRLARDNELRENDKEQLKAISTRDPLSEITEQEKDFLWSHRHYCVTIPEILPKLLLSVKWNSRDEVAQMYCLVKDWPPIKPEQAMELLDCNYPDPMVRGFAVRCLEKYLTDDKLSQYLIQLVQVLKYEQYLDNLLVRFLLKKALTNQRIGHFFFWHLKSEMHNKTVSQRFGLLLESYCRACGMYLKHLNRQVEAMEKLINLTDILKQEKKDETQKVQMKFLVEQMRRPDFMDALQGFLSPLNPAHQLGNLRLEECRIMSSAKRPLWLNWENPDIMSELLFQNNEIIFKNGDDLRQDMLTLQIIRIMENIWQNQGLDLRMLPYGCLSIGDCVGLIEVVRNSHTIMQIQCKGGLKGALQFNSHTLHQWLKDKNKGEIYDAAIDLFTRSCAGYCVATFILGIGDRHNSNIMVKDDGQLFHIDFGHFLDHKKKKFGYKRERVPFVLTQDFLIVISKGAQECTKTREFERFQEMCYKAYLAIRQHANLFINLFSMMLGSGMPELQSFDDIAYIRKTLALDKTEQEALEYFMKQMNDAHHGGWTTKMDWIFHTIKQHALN
T2 sequence (P27986 whole entry partner): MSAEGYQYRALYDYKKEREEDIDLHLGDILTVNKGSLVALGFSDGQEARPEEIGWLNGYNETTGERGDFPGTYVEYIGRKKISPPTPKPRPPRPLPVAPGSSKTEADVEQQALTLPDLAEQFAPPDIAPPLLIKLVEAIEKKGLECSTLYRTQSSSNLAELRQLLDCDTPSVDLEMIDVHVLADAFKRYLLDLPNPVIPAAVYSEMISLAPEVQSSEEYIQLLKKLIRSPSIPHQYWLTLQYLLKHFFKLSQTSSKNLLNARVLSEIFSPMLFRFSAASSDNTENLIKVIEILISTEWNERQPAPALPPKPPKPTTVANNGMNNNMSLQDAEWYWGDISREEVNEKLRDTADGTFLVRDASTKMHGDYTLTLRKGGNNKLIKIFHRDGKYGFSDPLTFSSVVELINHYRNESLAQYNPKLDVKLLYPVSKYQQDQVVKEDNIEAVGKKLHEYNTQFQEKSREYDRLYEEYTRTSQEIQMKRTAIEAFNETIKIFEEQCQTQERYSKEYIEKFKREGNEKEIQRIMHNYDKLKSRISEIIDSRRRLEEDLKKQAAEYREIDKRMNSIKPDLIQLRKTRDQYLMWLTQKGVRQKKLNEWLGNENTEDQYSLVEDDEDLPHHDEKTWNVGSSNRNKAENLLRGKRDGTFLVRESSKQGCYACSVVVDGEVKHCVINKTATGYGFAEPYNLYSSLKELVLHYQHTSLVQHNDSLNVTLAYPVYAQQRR
As to the kind of experiment: HTRF PI3K biochemical assay, alpha isoform (selectivity versus delta). The settings on record: relative ratio PI3K-alpha IC50 value / PI3K-delta IC50 value.
Excerpt: as §1, §2, §3, §4, §5
(Time-resolved FRET reads energy transfer from a long-lived donor to a nearby acceptor.)

T1 sequence (O00329 whole entry): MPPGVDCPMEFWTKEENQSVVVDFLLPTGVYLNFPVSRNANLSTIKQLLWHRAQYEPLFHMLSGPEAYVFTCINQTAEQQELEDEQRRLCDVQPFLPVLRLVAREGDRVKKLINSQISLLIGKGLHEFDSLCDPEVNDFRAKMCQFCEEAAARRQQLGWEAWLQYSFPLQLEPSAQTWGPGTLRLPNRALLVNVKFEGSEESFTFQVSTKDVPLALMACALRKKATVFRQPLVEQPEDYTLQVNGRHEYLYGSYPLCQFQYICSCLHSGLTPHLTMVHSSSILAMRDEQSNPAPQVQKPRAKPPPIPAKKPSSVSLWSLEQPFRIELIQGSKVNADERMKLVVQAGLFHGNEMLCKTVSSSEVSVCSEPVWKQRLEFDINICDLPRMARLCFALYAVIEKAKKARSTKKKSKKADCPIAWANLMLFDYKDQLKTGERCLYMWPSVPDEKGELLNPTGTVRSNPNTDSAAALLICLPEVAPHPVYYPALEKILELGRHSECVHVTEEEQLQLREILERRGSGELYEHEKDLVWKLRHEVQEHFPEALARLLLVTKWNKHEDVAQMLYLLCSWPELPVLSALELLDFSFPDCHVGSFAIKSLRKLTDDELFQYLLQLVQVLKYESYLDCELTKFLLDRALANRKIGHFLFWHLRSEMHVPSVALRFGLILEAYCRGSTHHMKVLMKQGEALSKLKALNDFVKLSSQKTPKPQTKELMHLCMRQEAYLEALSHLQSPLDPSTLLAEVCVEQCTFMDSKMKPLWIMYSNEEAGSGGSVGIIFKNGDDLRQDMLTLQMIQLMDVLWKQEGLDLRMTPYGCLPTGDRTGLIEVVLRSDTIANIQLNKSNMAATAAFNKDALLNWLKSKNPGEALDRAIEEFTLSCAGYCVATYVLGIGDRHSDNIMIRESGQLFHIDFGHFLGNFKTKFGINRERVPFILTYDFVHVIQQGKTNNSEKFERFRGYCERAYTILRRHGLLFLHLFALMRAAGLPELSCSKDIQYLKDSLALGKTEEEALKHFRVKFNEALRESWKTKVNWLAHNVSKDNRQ
T1 sequence (P27986 whole entry partner): as the sequence (P27986 whole entry partner) above

On to `CCn1c(-c2cnn(-c3ccccc3)c2)nc2c(NC3CCc4nnc(C5CC5)n4C3)ncnc21` (racemic) [Compound 1-10, (S and R)-N-(3-cyclopropyl-5,6,7,8-tetrahydro[1,2,4]triazolo[4,3-a]pyridin-6-yl)-9-ethyl-8-(1-phenyl-1H-pyrazol-4-yl)-9H-purin-6-amine], for which, in assay [1], the IC50 (in general, the point on the concentration scale where inhibition reaches its midpoint) is < 1 nM. Also, in assay [2], the “Selectivity versus PI3Kalpha” value is on record as >10.
Taken in the same sequence, the figures for `CCn1c(-c2ccc(C(F)(F)F)nc2)nc2c(NC3CCc4nnc(C5CC5)n4C3)ncnc21` (racemic) [Compound 1-11, (S and R)-N-(3-cyclopropyl-5,6,7,8-tetrahydro[1,2,4]triazolo[4,3-a]pyridin-6-yl)-9-ethyl-8-[6-(trifluoromethyl)pyridin-3-yl]-9H-purin-6-amine] were 4.1 nM and >10.
As for `CCn1c(-c2ccc(OC)nc2)nc2c(NC3CCc4nnc(C5CC5)n4C3)ncnc21` (racemic) [Compound 1-12, (S and R)-N-(3-cyclopropyl-5,6,7,8-tetrahydro[1,2,4]triazolo[4,3-a]pyridin-6-yl)-9-ethyl-8-(6-methoxypyridin-3-yl)-9H-purin-6-amine], in assay [1], the half-inhibitory concentration (IC50) worked out at 1.2 nM. In assay [2], the “Selectivity versus PI3Kalpha” value is on record as >10.
For `CCn1c(-c2cnc(OC)c(F)c2)nc2c(NC3CCc4nnc(C5CC5)n4C3)ncnc21` (racemic) [Compound 1-13, (S and R)-N-(3-cyclopropyl-5,6,7,8-tetrahydro[1,2,4]triazolo[4,3-a]pyridin-6-yl)-9-ethyl-8-(5-fluoro-6-methoxypyridin-3-yl)-9H-purin-6-amine] the same measures were 1.1 nM and >10.
As to `CCn1c(-c2ccc(OC(F)F)nc2)nc2c(NC3CCc4nnc(C5CC5)n4C3)ncnc21` (racemic) [Compound 1-14, (S and R)-N-(3-cyclopropyl-5,6,7,8-tetrahydro[1,2,4]triazolo[4,3-a]pyridin-6-yl)-8-[6-(difluoromethoxy)pyridin-3-yl]-9-ethyl-9H-purin-6-amine], the IC50 in assay [1] amounted to 2.1 nM. In addition, the “Selectivity versus PI3Kalpha” value in assay [2] was >10.
Taken in the same sequence, the figures for `CCn1c(-c2cnc(OC)c(C)c2)nc2c(NC3CCc4nnc(C5CC5)n4C3)ncnc21` (racemic) [Compound 1-15, (S and R)-N-(3-cyclopropyl-5,6,7,8-tetrahydro[1,2,4]triazolo[4,3-a]pyridin-6-yl)-9-ethyl-8-(6-methoxy-5-methylpyridin-3-yl)-9H-purin-6-amine] were < 1 nM and >10.
Taken in the same sequence, the figures for `CCn1c(-c2ccc(OC(F)(F)F)cc2)nc2c(NC3CCc4nnc(C5CC5)n4C3)ncnc21` (racemic) [Compound 1-16, (S and R)-N-(3-cyclopropyl-5,6,7,8-tetrahydro[1,2,4]triazolo[4,3-a]pyridin-6-yl)-9-ethyl-8-[4-(trifluoromethoxy)phenyl]-9H-purin-6-amine] were 3.9 nM and >10.
As for `CCn1ncc(-c2nc3c(NC4CCc5nnc(C6CC6)n5C4)ncnc3n2CC)c1C` (racemic) [Compound 1-17, (S and R)-N-(3-cyclopropyl-5,6,7,8-tetrahydro[1,2,4]triazolo[4,3-a]pyridin-6-yl)-9-ethyl-8-(1-ethyl-5-methyl-1H-pyrazol-4-yl)-9H-purin-6-amine], the IC50 in assay [1] is < 1 nM. Moreover, the “Selectivity versus PI3Kalpha” value in assay [2] was >10.
For `CCn1c(C(=O)NCC(F)(F)F)nc2c(NC3CCc4nnc(C(C)C)n4C3)ncnc21` (racemic) [Compound 1-37, (S and R)-9-ethyl-6-{[3-(1-methylethyl)-5,6,7,8-tetrahydro[1,2,4]triazolo[4,3-a]pyridin-6-yl]amino}-N-(2,2,2-trifluoroethyl)-9H-purine-8-carboxamide] the same measures were 12 nM and >10.
As to `CCn1c(-c2cnc(C)nc2)nc2c(NC3CCc4c(c(C5CC5)nn4C(=O)OC(C)(C)C)C3)ncnc21` (racemic) [Compound 2-1, (S and R)-tert-butyl 3-cyclopropyl-5-{[9-ethyl-8-(2-methylpyrimidin-5-yl)-9H-purin-6-yl]amino}-4,5,6,7-tetrahydro-1H-indazole-1-carboxylate], in assay [1], the IC50 was < 1 nM. The “Selectivity versus PI3Kalpha” value in assay [2] is given as >10.
For `CCn1c(-c2cnc(C)nc2)nc2c(NC3CCc4c(c(C(C)C)nn4CCN(C)C)C3)ncnc21` (racemic) [Compound 2-3, (S and R)-N-{1-[2-(dimethylamino)ethyl]-3-(1-methylehyl)-4,5,6,7-tetrahydro-1H-indazol-5-yl}-9-ethyl-8-(2-methylpyrimidin-5-yl)-9H-purin-6-amine] the same measures were 7.4 nM and >10.
`CCn1c(C(F)F)nc2c(NC3CCc4[nH]nc(C(C)C)c4C3)ncnc21` (racemic) [Compound 2-9, (S and R)-8-(difluoromethyl)-9-ethyl-N-[3-(1-methylethyl)-4,5,6,7-tetrahydro-1H-indazol-5-yl]-9H-purin-6-amine]: the IC50 in assay [1] was determined as 60 nM. The “Selectivity versus PI3Kalpha” value in assay [2] was >10.
For `CCn1c(-c2cnc(C)nc2)nc2c(NC3CCc4c(c(C(C)C)nn4C(C)=O)C3)ncnc21` (racemic) [Compound 2-12, (S and R)-N-[1-acetyl-3-(1-methylethyl)-4,5,6,7-tetrahydro-1H-indazol-5-yl]-9-ethyl-8-(2-methylpyrimidin-5-yl)-9H-purin-6-amine] the same measures were 15 nM and >10.
Regarding `CCn1c(-c2cnc(C)nc2)nc2c(NC3CCc4c(c(C(C)C)nn4C(=O)c4ccccc4)C3)ncnc21` (racemic) [Compound 2-13, (S and R)-9-ethyl-N-[3-(1-methylethyl)-1-(phenylcarbonyl)-4,5,6,7-tetrahydro-1H-indazol-5-yl]-8-(2-methylpyrimidin-5-yl)-9H-purin-6-amine], the concentration for half-maximal inhibition (IC50) in assay [1] came to 30 nM. Besides, the “Selectivity versus PI3Kalpha” value in assay [2] is recorded as >10.
For the compound `CCn1c(-c2cnc(C)nc2)nc2c(NC3CCc4c(c(C(C)C)nn4C(=O)CN(C)C)C3)ncnc21` (racemic) [Compound 2-14, (S and R)-N-{1-[(dimethylamino)acetyl]-3-(1-methylethyl)-4,5,6,7-tetrahydro-1H-indazol-5-yl}-9-ethyl-8-(2-methylpyrimidin-5-yl)-9H-purin-6-amine], the 50% inhibitory concentration (IC50) in assay [1] came out at 20 nM. Moreover, the “Selectivity versus PI3Kalpha” value in assay [2] is listed as >10.
For `CCn1c(-c2cnc(C)nc2)nc2c(NC3CCc4c(c(C(C)C)nn4C(=O)CC(C)(C)C)C3)ncnc21` (racemic) [Compound 2-15, (S and R)-N-[1-(3,3-dimethylbutanoyl)-3-(1-methylethyl)-4,5,6,7-tetrahydro-1H-indazol-5-yl]-9-ethyl-8-(2-methylpyrimidin-5-yl)-9H-purin-6-amine] the same measures were 78 nM and >10.
Taken in the same sequence, the figures for `CCn1c(-c2cnc(C)nc2)nc2c(NC3CCc4c(c(C(C)C)nn4C(=O)OC(C)(C)C)C3)ncnc21` (racemic) [Compound 2-16, (S and R)-tert-butyl 5-{[9-ethyl-8-(2-methylpyrirnidin-5-yl)-9H-purin-6-yl]amino}-3-(1-methylethyl)-4,5,6,7-tetrahydro-1H-indazole-1-carboxylate] were < 1 nM and >10.
